Where two headings read alike, the source gives them in different places.
Legend:
Type in all cases: cell-based
[1] = molecular target: T1, mouse P2X1 receptor (Mus musculus, UniProt P51576); test: Two-electrode voltage clamp, ATP-induced ion current in Xenopus oocytes expressing mouse P2X1; conditions: for inhibition at 10 µM / % inhibition mP2X1: 10 μM compound; for Hill coefficient: concentration-inhibitory curve, 2 μM ATP (FIG. 1B, FIG. 2A); for IC50: concentration-response curve, 2 μM ATP, mean of four observations, read-out: IC50 value
T1 construct: EST clones containing full-length cDNAs of mouse P2X1 (clone ID: 4189541) and human P2X7 receptor (clone ID: 5286944); host or cells: Xenopus oocytes (cRNA injected)
T1 sequence (P51576 1-399): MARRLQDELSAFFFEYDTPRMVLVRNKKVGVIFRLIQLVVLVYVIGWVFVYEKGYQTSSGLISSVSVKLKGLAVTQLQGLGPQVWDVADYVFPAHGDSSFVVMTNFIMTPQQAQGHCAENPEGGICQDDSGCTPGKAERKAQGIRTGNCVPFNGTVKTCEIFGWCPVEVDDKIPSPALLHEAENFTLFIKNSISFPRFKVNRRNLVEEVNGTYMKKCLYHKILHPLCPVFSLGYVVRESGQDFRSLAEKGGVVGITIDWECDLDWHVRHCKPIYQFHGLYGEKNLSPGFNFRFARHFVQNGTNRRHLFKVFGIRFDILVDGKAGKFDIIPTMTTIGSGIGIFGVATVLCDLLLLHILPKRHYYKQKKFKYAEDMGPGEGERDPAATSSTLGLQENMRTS
Method: 1-1. Antagonistic Activity at Recombinant Mouse P2X1 and Human P2X3 Receptors
(§1) Xenopus oocytes were harvested and prepared with method as previously described in publications. Defolliculated oocytes were injected cytosolically with mouse P2X1 and human P2X3 receptor cRNA ([…], 1 μg/mL), respectively, incubated for 24 hrs at 18° C. in Barth's solution and kept for up to 12 days at 4° C. until used in electrophysiological experiments. ATP-activated membrane currents (Vh=−70 mV) were recorded from cRNA-injected oocytes using the twin-electrode voltage-clamp technique (Axoclamp 2B amplifier). Voltage recording (1-2 MΩ tip resistance) and current-recording microelectrodes (5 MΩ tip resistance) were filled with 3.0 M KCl. Oocytes were held in an electrophysiological chamber and superfused with Ringer's solution (5 mL/min, at 18° C.) containing (mM) NaCl, 110; KCl, 2.5; HEPES, 5; BaCl2, 1.8, adjusted to pH 7.5. ATP was superfused over the oocytes for 60-120s then washed out for a period of 20 min. For inhibition curves, data were normalized to the current evoked by ATP, at pH 7.5. Test substances were added for 20 min prior to ATP exposure; all peptides were tested for reversibility of their effects. The concentration required to inhibit the ATP response by 50% (IC50) was taken from Hill plots constructed using the formula: log(I/Imax−1), where I is the current evoked by ATP in the presence of an antagonist. Data are presented as mean±SEM (n=4) for the data from different batches of oocytes.

[2] = molecular target: T2, human P2X7 receptor (Homo sapiens, UniProt Q99572); test: Ethidium+ accumulation assay in human P2X7-expressing HEK293 cells; conditions: 10 μM compound, ethidium+ accumulation induced by 6 μM BzATP, n = 3
T2 construct: EST clones containing full-length cDNAs of mouse P2X1 (clone ID: 4189541) and human P2X7 receptor (clone ID: 5286944); host or cells: HEK293
T2 sequence (Q99572 1-595): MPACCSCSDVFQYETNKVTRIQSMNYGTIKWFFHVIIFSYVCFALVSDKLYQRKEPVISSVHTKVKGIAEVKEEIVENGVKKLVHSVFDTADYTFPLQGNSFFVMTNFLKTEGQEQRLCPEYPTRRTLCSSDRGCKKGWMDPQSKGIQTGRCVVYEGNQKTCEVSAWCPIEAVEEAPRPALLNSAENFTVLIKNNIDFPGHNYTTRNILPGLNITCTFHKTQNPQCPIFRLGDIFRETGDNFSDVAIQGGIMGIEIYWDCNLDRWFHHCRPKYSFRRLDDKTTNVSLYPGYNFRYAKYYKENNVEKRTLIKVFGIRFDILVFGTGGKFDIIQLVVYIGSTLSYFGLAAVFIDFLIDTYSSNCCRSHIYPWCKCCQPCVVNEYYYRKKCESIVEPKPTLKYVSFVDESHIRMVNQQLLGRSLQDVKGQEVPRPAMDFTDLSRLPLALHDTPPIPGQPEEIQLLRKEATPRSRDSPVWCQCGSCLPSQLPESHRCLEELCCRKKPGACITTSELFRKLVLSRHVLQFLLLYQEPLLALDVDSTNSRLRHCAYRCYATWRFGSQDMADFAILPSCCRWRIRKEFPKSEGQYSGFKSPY
Method: 1-2. Ethidium^+ Accumulation Assay at Human P2X7 Receptors
Human P2X7-expressing HEK293 cells were grown as monolayer culture at 37° C. in a humidified atmosphere of 5% CO2, DMEM supplemented with 10% fetal bovine serum. Cells were harvested with treatment of Trypsin/EDTA solution, collected by centrifugation (200 g for 5 min).
The cells were resuspended at 2.5×10^6 cells/mL in assay buffers, consisting of (in mM) HEPES 10, KCl 140, glucose 5, EDTA 1 (pH 7.4), and then ethidium bromide (100 μM) was added. Cell suspensions were added to 96 well plates containing the P2X7 receptor agonist, ATP or BzATP, at 2×10^5 cells/wells. Plates were incubated at 37° C. for 120 min and cellular accumulation of ethidium^+ was determined by measuring fluorescence with Bio-Tek instrument FL600 fluorescent plate reader (excitation wavelength of 530 nm and emission wavelength of 590 nm). When the effects of antagonists, such as PPADS, KN62, and test peptides were studied, antagonists were treated together with agonist without pre-incubation.

[3] = molecular target: T3, human P2X3 receptor (Homo sapiens, UniProt P56373); test: Two-electrode voltage clamp, ATP-induced ion current in Xenopus oocytes expressing human P2X3; conditions: for Hill coefficient: concentration-inhibitory curve, 2 μM ATP (FIG. 1C, FIG. 2B); for IC50: concentration-response curve, 2 μM ATP, mean of four observations, read-out: IC50 value
T3 construct: expressed in transfected cells; host or cells: Xenopus oocytes (cRNA injected); cDNA from the Max-Planck Institute laboratory (Dr. W. Stuhmer and Dr. F. Soto)
T3 sequence (P56373 1-397): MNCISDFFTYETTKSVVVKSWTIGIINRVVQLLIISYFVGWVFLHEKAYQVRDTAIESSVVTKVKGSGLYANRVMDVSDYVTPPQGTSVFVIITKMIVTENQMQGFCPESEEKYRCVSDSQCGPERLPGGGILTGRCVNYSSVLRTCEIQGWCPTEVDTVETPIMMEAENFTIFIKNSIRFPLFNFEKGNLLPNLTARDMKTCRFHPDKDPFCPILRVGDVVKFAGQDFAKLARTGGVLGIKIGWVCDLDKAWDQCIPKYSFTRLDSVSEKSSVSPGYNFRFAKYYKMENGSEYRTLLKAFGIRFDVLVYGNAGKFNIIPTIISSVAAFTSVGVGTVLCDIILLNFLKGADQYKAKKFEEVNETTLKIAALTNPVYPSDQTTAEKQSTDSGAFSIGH
Method: Antagonistic Activity at Recombinant Mouse P2X1 and Human P2X3 Receptors
as §1

[4] = Table 2, ion current induced by 2 μM ATP, mean ± SEM, n = 4, read-out: % inhibition mP2X1
[5] = Table 2, 10 μM compound, ion current induced by 2 μM ATP, mean ± SEM, n = 4, read-out: % inhibition hP2X3
[6] = concentration of 100 nM, receptor not stated in the sentence (follows FIG. 2B, human P2X3), read-out: % inhibition
[7] = Table 2, ion current induced by 2 μM ATP, mean ± SEM, n = 4

| inhibition at 10 µM [1, 4] [%] | % inhibition hP2X7 [2] | inhibition at 10 µM [3, 5] [%] | Compound | also measured |
| --- | --- | --- | --- | --- |
| 48.3 ± 4.1 | inactive | 67.9 ± 5.2 | Cc1nc(Cc2cccc3ccccc23)c(C(=O)O)c(C(=O)O)c1O [Compound 50, 5-Hydroxy-6-methyl-2-(naphthalene-1-ylmethyl)pyridine-3,4-dicarboxylic acid] | – |
| 52.8 ± 5.6 | inactive | 72.6 ± 4.3 | COc1ccc(CCc2nc(C)c(O)c(C=O)c2C(=O)O)cc1 [Compound 67, 4-formyl-5-hydroxy-2-(4-methoxyphenethyl)-6-methylnicotinic acid] | – |
| 52 ± 7.1 | inactive | 42.2 ± 7.5 | COc1ccc(CCc2nc(C)c(O)c(C(C)=O)c2C(=O)O)cc1 [Compound 46, 4-acetyl-5-hydroxy-2-(4-methoxyphenethyl)-6-methylnicotinic acid] | – |
| 49.8 ± 5.4 | inactive | 34.5 ± 4.3 | COc1ccccc1CCc1nc(C)c(O)c(C(=O)O)c1C(=O)O [Compound 41, 5-Hydroxy-2-[2-(2-methoxy-phenyl)-ethyl]-6-methyl-pyridine-3,4-dicarboxylic acid] | – |
| 71.4 ± 4.3 | inactive | 48.4 ± 9 | Cc1nc(C=Cc2ccccc2)c(C(=O)O)c(C(=O)O)c1O [Compound 38, 5-Hydroxy-6-methyl-2-styryl-pyridine-3,4-dicarboxylic acid] | Hill coefficient [1]: −0.98±0.11; IC50 [1]: 509 nM; inhibition at 0.1 µM [3, 6]: 19.2%; Hill coefficient [3]: −0.52±0.12; IC50 [3]: 782 nM |
| 78 | inactive | 59.8 ± 4.6 | COc1ccc(CCc2nc(C)c(O)c(C(=O)O)c2C(=O)O)cc1 [Compound 37, 5-Hydroxy-2-[2-(4-methoxy-phenyl)ethyl]-6-methyl-pyridine-3,4-dicarboxylic acid] | % inhibition mP2X1 [1, 7]: 77.0 ± 3.8% |
| 40.4 ± 1.3 | inactive | 27.4 ± 5.5 | CC(=O)c1c(O)c(C)nc(/C=C/c2ccccc2)c1C(=O)O [Compound 47, (E)-4-acetyl-5-hydroxy-6-methyl-2-styrylnicotinic acid] | – |
| 47.9 ± 8.1 | inactive | 37.3 ± 10 | CC(=O)c1c(O)c(C)nc(CCc2ccccc2)c1C(=O)O [Compound 45, 4-acetyl-5-hydroxy-6-methyl-2-phenethylnicotinic acid] | – |
| 29.9 ± 5.7 | inactive | 15.8 ± 9 | COc1cccc(/C=C/c2nc(C)c(O)c(C(C)=O)c2C(=O)O)c1 [Compound 48, (E)-4-acetyl-5-hydroxy-2-(3-methoxystyryl)-6-methylnicotinic acid] | – |
| 82 | inactive | 68.9 ± 11.7 | Cc1nc(CCc2ccc(C(=O)O)cc2)c(C(=O)O)c(C(=O)O)c1O [Compound 39, 2-[2-(4-Carboxy-phenyl)-ethyl]-5-hydroxy-6-methyl-pyridine-3,4-dicarboxylic acid] | % inhibition mP2X1 [1, 7]: 82.7 ± 6.0%; Hill coefficient [1]: −1.00±0.09; IC50 [1]: 186 nM; inhibition at 0.1 µM [3, 6]: 34%; Hill coefficient [3]: −0.58±0.27; IC50 [3]: 339 nM |
| – | – | – | Cc1ncc(CN(CCC(=O)O)Cc2ccccc2)c(C=O)c1O [Compound 22, 3-(Benzyl((4-formyl-5-hydroxy-6-methylpyridin-3-yl)methyl)amino)propanoic acid] | % inhibition mP2X1 ([1]; Table 1, ion current induced by 2 μM ATP, mean ± SEM, n = 4): inactive; % inhibition hP2X3 ([3]; Table 1, 10 μM compound, ion current induced by 2 μM ATP, mean ± SEM, n = 4): inactive |
| – | – | – | Cc1ncc(C=CC(=O)O)c(C=O)c1O [Compound 17, 3-(4-Formyl-5-hydroxy-6-methylpyridin-3-yl)acrylic acid] | inhibition at 10 µM ([1]; Table 1, ion current induced by 2 μM ATP, mean ± SEM, n = 4, read-out: % inhibition mP2X1): 7.4 ± 1.9%; inhibition at 10 µM ([3]; Table 1, 10 μM compound, ion current induced by 2 μM ATP, mean ± SEM, n = 4, read-out: % inhibition hP2X3): 9.3 ± 2.3% |
| – | – | – | Cc1nc(N=Nc2ccc(S(=O)(=O)O)cc2)c(CCC(=O)O)c(C=O)c1O [Compound 26, 3-(4-Formyl-5-hydroxy-6-methyl-2-((4-sulfophenyl)diazenyl)pyridin-3-yl)propanoic acid] | inhibition at 0.1 µM ([1]; Table 1, 100 nM compound, ion current induced by 2 μM ATP, mean ± SEM, n = 4, read-out: % inhibition mP2X1): 41.8 ± 9.8%; inhibition at 0.1 µM ([3]; Table 1, 100 nM compound, ion current induced by 2 μM ATP, mean ± SEM, n = 4, read-out: % inhibition hP2X3): 46.5 ± 11.2% |

Reference: US9546139B2, “Pyridine carboxylic acid based compound used as a P2X1 and P2X3 receptor antagonist, a production method for the same and a composition comprising the same” (GWANGJU INSTITUTE OF SCIENCE AND TECHNOLOGY, priority 2010, dated 2017)
